Assay results as given in PubChem BioAssay (NCI).
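These data come from cells grown in 96-well plates and exposed to compound for 48 hours at five concentrations. Definition used: TGI = concentration required for complete inhibition of growth.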

Key:
Test in all cases: growth of human tumour cells (NCI), 48 h
DMS 114 small cell lung = tested on: DMS 114 small cell lung
HOP-18 NSCLC = tested on: HOP-18 NSCLC
M19-MEL melanoma = tested on: M19-MEL melanoma
SNB-78 CNS = tested on: SNB-78 CNS
DMS 273 small cell lung = tested on: DMS 273 small cell lung
LXFL 529 NSCLC = tested on: LXFL 529 NSCLC
RXF-631 renal = tested on: RXF-631 renal
XF 498 CNS = tested on: XF 498 CNS
DLD-1 colon = tested on: DLD-1 colon

Structure (SMILES)	TGI (DMS 114 small cell lung) [µM]	TGI (HOP-18 NSCLC) [µM]	TGI (M19-MEL melanoma) [µM]	TGI (SNB-78 CNS) [µM]	TGI (DMS 273 small cell lung) [µM]	TGI (LXFL 529 NSCLC) [µM]	TGI (RXF-631 renal) [µM]	TGI (XF 498 CNS) [µM]	TGI (DLD-1 colon) [µM]
COc1c(Cl)c2c(c(OC)c1OC)-c1ccc(OC)c(=O)c(Cl)c1C(NC(C)=O)CC2 (stereo not drawn)	1.11	> 100	> 28.4	> 100	> 100	> 100	6.32	12.9	> 100
COc1cc(C2=NN(C)C(c3ccc([N+](=O)[O-])o3)C2)cc(OC)c1OC (stereo not drawn)	> 100	> 100	> 100	> 100	> 100	> 100	> 100	–	> 100
CC(=O)c1cccc(NC(=O)/C(=N\NC(C)(C)C)c2c(O)c3ccccc3oc2=O)c1	> 100	> 100	> 100	–	> 100	> 100	–	> 100	> 100
COC(=O)c1ccc(OCc2ccc3nc(OC)c(OC)nc3c2)cc1	> 100	> 100	> 100	> 100	> 100	–	–	> 100	> 100
C=CCCC(OCOCCOC)c1cc(C)c(O[Si](C)(C)C(C)(C)C)c(C)c1 (stereo not drawn)	28	96.4	55.3	> 100	–	> 100	30.4	–	–
CCN1CCC(O)(c2ccc(C)cc2)C(C(=O)c2ccc(C)cc2)C1 (stereo not drawn)	–	36.9	> 61.2	> 76.8	34.7	31.3	–	33.1	33.4
COc1ccc2c(c1)c(=O)c1ccccc1n2/C=C/C(=O)O	> 100	> 100	–	> 100	> 67	> 100	–	> 100	> 66.2
CNC(=O)CN(CC(=O)NC)C(=O)NC	–	–	> 100	> 100	> 100	> 100	–	> 100	> 100
O=C1CCCCC1CN1CCCC1 (stereo not drawn)	> 100	–	> 100	> 100	> 100	> 100	–	> 100	> 100
CC1=NN(c2ccccc2)C(=O)C1=C1SCCS1	> 67.7	> 100	> 100	> 100	> 100	> 100	> 100	> 100	> 57.9
CC1(C)COC(C23C4C5C2C2C3C4C52I)=N1 (stereo not drawn)	> 100	> 100	> 100	> 100	–	> 100	–	> 100	> 100
O=S1(=O)OCCOS(=O)(=O)C1I	> 100	–	> 100	> 100	> 100	> 100	> 100	> 100	> 100
CCCN(CCCCC(NC(C)=O)C(=O)NCc1ccccc1)C(=O)N(C)N=O (stereo not drawn)	> 100	–	> 100	> 100	> 100	> 100	–	> 100	> 100
C/C(CC(=O)Nc1ccc(Cl)c(Cl)c1)=N/NC(=O)C[n+]1ccccc1	66.1	> 100	> 100	> 100	> 100	> 100	–	> 100	–
COc1ccc(N2C(=O)C3c4[nH]c5ccc(OC)cc5c4C4CCC(C(C)(C)C)CC4C3C2=O)cc1 (stereo not drawn)	> 100	> 100	> 100	45.3	40.1	65.2	–	> 100	> 100
CN(C)c1ccc(-c2cc(=O)c3cc4c(cc3[nH]2)OCO4)cc1	> 100	–	> 100	–	> 100	> 100	> 100	> 100	> 100
COc1cccc2c1CCc1ccccc1CC2=O	> 100	> 100	> 100	–	> 100	> 100	–	> 100	> 100
COC(=O)CCCN(C)c1n[nH]c(N)n1	> 100	–	> 100	> 100	> 100	> 100	–	–	> 100
COc1ccc(C[C@@H]2Cc3cc(OC)c(OC)cc3CN2C)cc1	–	–	–	> 100	–	> 100	–	> 100	> 100
CCOC(=O)/C(=C\c1ccc(O)c(OC)c1)C(=O)c1ccccc1	–	> 100	79.6	8.36	–	> 39.5	–	> 52	38.2
Cc1nc2c(n1CCO)C(=O)c1ccccc1C2=O	–	–	6.6	> 100	70.2	> 100	–	92.9	> 100
O=C(O)/C=C/n1c2ccccc2c(=O)c2ccccc21	> 100	–	> 100	> 100	> 100	–	> 100	> 100	> 100
